PubChem BioAssay (NCI)
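Each compound was tested at five concentrations against cells in 96-well plates for 48 hours. GI50 marks 50% less growth. TGI marks complete inhibition of growth.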

Tests used:
Test in all cases: NCI anticancer screen, dose series, 48 h
[1] = test system: 786-0 renal
[2] = test system: A498 renal
[3] = test system: A549 NSCLC
[4] = test system: ACHN renal
[5] = test system: BT-549 breast
[6] = test system: CCRF-CEM leukemia
[7] = test system: COLO 205 colon
[8] = test system: DU-145 prostate
[9] = test system: EKVX NSCLC
[10] = test system: HCC-2998 colon
[11] = test system: HCT-116 colon
[12] = test system: HCT-15 colon
[13] = test system: HL-60(TB) leukemia
[14] = test system: HOP-62 NSCLC
[15] = test system: HOP-92 NSCLC
[16] = test system: HT29 colon
[17] = test system: IGROV1 ovarian
[18] = test system: K-562 leukemia
[19] = test system: KM12 colon
[20] = test system: LOX IMVI melanoma
[21] = test system: M14 melanoma
[22] = test system: MALME-3M melanoma
[23] = test system: MCF7 breast
[24] = test system: MDA-MB-231 breast
[25] = test system: MDA-MB-435
[26] = test system: MOLT-4 leukemia
[27] = test system: NCI-H226 lung
[28] = test system: NCI-H23 lung
[29] = test system: NCI-H460 lung
[30] = test system: NCI/ADR-RES ovarian
[31] = test system: OVCAR-3 ovarian
[32] = test system: OVCAR-4 ovarian
[33] = test system: OVCAR-5 ovarian
[34] = test system: OVCAR-8 ovarian
[35] = test system: PC-3 prostate
[36] = test system: RPMI-8226 leukemia
[37] = test system: RXF 393 renal
[38] = test system: SF-268 CNS
[39] = test system: SF-295 CNS
[40] = test system: SF-539 CNS
[41] = test system: SK-MEL-28 melanoma
[42] = test system: SK-MEL-5 melanoma
[43] = test system: SK-OV-3 ovarian
[44] = test system: SN12C renal
[45] = test system: SNB-19 CNS
[46] = test system: SNB-75 CNS
[47] = test system: SR leukemia
[48] = test system: SW-620 colon
[49] = test system: T-47D breast
[50] = test system: TK-10 renal
[51] = test system: U251 CNS
[52] = test system: UACC-257 melanoma
[53] = test system: UACC-62 melanoma
[54] = test system: UO-31 renal
[55] = test system: CAKI-1 renal
[56] = test system: NCI-H522 lung
[57] = test system: SK-MEL-2 melanoma

Compound: CN(CCNCc1ccccn1)CCNCc1ccccn1
- GI50 [1]: 1.8 µM
- TGI [1]: 3.57 µM
- GI50 [2]: 1.8 µM
- TGI [2]: 3.27 µM
- GI50 [3]: 2.95 µM
- TGI [3]: 8.07 µM
- GI50 [4]: 2.2 µM
- TGI [4]: 5.82 µM
- GI50 [5]: 1.98 µM
- TGI [5]: 4.63 µM
- GI50 [6]: 3.87 µM
- TGI [6]: > 100 µM
- GI50 [7]: 2.53 µM
- TGI [7]: 6.02 µM
- GI50 [8]: 3.6 µM
- TGI [8]: 12.4 µM
- GI50 [9]: 3.01 µM
- TGI [9]: 12.3 µM
- GI50 [10]: 2.17 µM
- TGI [10]: 4.64 µM
- GI50 [11]: 2.18 µM
- TGI [11]: 4.7 µM
- GI50 [12]: 2.96 µM
- TGI [12]: 12.6 µM
- GI50 [13]: 3.27 µM
- TGI [13]: 23.3 µM
- GI50 [14]: 3.85 µM
- TGI [14]: 22.6 µM
- GI50 [15]: 2.02 µM
- TGI [15]: 5.27 µM
- GI50 [16]: 2.79 µM
- TGI [16]: 7.86 µM
- GI50 [17]: 3.23 µM
- TGI [17]: 12.6 µM
- GI50 [18]: 3.58 µM
- TGI [18]: > 100 µM
- GI50 [19]: 3.11 µM
- TGI [19]: 10.1 µM
- GI50 [20]: 2.48 µM
- TGI [20]: 6.88 µM
- GI50 [21]: 2.26 µM
- TGI [21]: 5.93 µM
- GI50 [22]: 1.46 µM
- TGI [22]: 3.94 µM
- GI50 [23]: 3.08 µM
- TGI [23]: 10.9 µM
- GI50 [24]: 2.56 µM
- TGI [24]: 5.93 µM
- GI50 [25]: 2.21 µM
- TGI [25]: 4.93 µM
- GI50 [26]: 3.61 µM
- TGI [26]: > 100 µM
- GI50 [27]: 1.92 µM
- TGI [27]: 4.2 µM
- GI50 [28]: 3.55 µM
- TGI [28]: > 100 µM
- GI50 [29]: 3.16 µM
- TGI [29]: 9.54 µM
- GI50 [30]: 3.57 µM
- TGI [30]: > 100 µM
- GI50 [31]: 2.09 µM
- TGI [31]: 4.27 µM
- GI50 [32]: 2.85 µM
- TGI [32]: 8.99 µM
- GI50 [33]: 2.66 µM
- TGI [33]: 8.57 µM
- GI50 [34]: 2.99 µM
- TGI [34]: 7.62 µM
- GI50 [35]: 2.27 µM
- TGI [35]: 7.59 µM
- GI50 [36]: 3.41 µM
- TGI [36]: 67.6 µM
- GI50 [37]: 1.94 µM
- TGI [37]: 3.81 µM
- GI50 [38]: 3.96 µM
- TGI [38]: 15.4 µM
- GI50 [39]: 2.23 µM
- TGI [39]: 5.69 µM
- GI50 [40]: 2.06 µM
- TGI [40]: 5.33 µM
- GI50 [41]: 2.64 µM
- TGI [41]: 8.17 µM
- GI50 [42]: 1.75 µM
- TGI [42]: 3.16 µM
- GI50 [43]: 2.24 µM
- TGI [43]: 5.27 µM
- GI50 [44]: 4.33 µM
- TGI [44]: 17.2 µM
- GI50 [45]: 5.29 µM
- TGI [45]: 18.5 µM
- GI50 [46]: 3.04 µM
- TGI [46]: 16 µM
- GI50 [47]: 3.71 µM
- TGI [47]: 43 µM
- GI50 [48]: 3.18 µM
- TGI [48]: 11.3 µM
- GI50 [49]: 3.43 µM
- TGI [49]: 28 µM
- GI50 [50]: 2.19 µM
- TGI [50]: 6.94 µM
- GI50 [51]: 3.48 µM
- TGI [51]: 12 µM
- GI50 [52]: 1.97 µM
- TGI [52]: 3.85 µM
- GI50 [53]: 2.18 µM
- TGI [53]: 4.74 µM
- GI50 [54]: 1.73 µM
- TGI [54]: 3.9 µM

Compound: COc1cc2c(cc1OCCCCN1CCN(C(=S)SCCC(C#N)(c3ccccc3)c3ccccc3)CC1)N=C[C@@H]1CCCN1C2=O
- GI50 [1]: 1.28 µM
- TGI [1]: 2.8 µM
- GI50 [2]: 1.19 µM
- TGI [2]: 2.81 µM
- GI50 [5]: 1.42 µM
- TGI [5]: 8.84 µM
- GI50 [55]: 0.597 µM
- TGI [55]: 2.7 µM
- GI50 [6]: 0.532 µM
- TGI [6]: > 100 µM
- GI50 [7]: 1.4 µM
- TGI [7]: 5.66 µM
- GI50 [9]: 1.88 µM
- TGI [9]: 5.74 µM
- GI50 [12]: 1.41 µM
- TGI [12]: 3.9 µM
- GI50 [13]: 0.324 µM
- TGI [13]: 1.57 µM
- GI50 [14]: 0.719 µM
- TGI [14]: 2.4 µM
- GI50 [15]: 1.07 µM
- TGI [15]: 14.3 µM
- GI50 [16]: 1.13 µM
- TGI [16]: > 100 µM
- GI50 [18]: 3.29 µM
- TGI [18]: > 100 µM
- GI50 [19]: 1.39 µM
- TGI [19]: 3.78 µM
- GI50 [22]: 1.36 µM
- TGI [22]: 3.04 µM
- GI50 [23]: 0.435 µM
- TGI [23]: 2.23 µM
- GI50 [24]: 1.53 µM
- TGI [24]: 4.73 µM
- GI50 [25]: 1.04 µM
- TGI [25]: 2.81 µM
- GI50 [27]: 1.26 µM
- TGI [27]: 3.29 µM
- GI50 [29]: 1.25 µM
- TGI [29]: 4.02 µM
- GI50 [56]: 0.196 µM
- TGI [56]: 0.642 µM
- GI50 [30]: 3.05 µM
- TGI [30]: > 100 µM
- GI50 [31]: 1.2 µM
- TGI [31]: 2.93 µM
- GI50 [32]: 1.82 µM
- TGI [32]: 17.7 µM
- GI50 [33]: 2.47 µM
- TGI [33]: 5.38 µM
- GI50 [34]: 1.59 µM
- TGI [34]: > 100 µM
- GI50 [35]: 0.697 µM
- TGI [35]: 2.41 µM
- GI50 [36]: 0.496 µM
- TGI [36]: 2.89 µM
- GI50 [37]: 0.414 µM
- TGI [37]: 2.01 µM
- GI50 [40]: 1.69 µM
- TGI [40]: 3.27 µM
- GI50 [57]: 1.04 µM
- TGI [57]: 2.35 µM
- GI50 [42]: 1.11 µM
- TGI [42]: 2.82 µM
- GI50 [43]: 2.96 µM
- TGI [43]: 9.81 µM
- GI50 [44]: 1.16 µM
- TGI [44]: 4.54 µM
- GI50 [45]: 1.67 µM
- TGI [45]: 3.98 µM
- GI50 [46]: 1.64 µM
- TGI [46]: 3.68 µM
- GI50 [49]: 0.578 µM
- TGI [49]: > 100 µM
- GI50 [50]: 1.26 µM
- TGI [50]: 3.04 µM
- GI50 [51]: 1.11 µM
- TGI [51]: 2.66 µM
- GI50 [52]: 1.97 µM
- TGI [52]: 4.17 µM
- GI50 [53]: 1.32 µM
- TGI [53]: 3.55 µM
- GI50 [54]: 0.593 µM
- TGI [54]: 2.09 µM
